{
  "source": "patent US8119689B2",
  "about": "“Adjuvants on the basis of bisacyloxypropylcystene conjugates and derivatives and their uses in pharmaceutical compositions” (Helmholtz-Zentrum Fuer Infektionsforschung GmbH, priority 2005, dated 2012)",
  "key": {"[1]": {"test_system": "primary bone marrow-derived dendritic cells", "test": "In vitro stimulation of primary bone marrow-derived murine dendritic cells, surface markers by flow cytometry", "format": "cell-based, BALB/c mice", "conditions": "CD11c+-gated DC, 50 ng/ml, 16 or 40 h pre-treatment", "method": "FIG. 1: FIGS. 1A-1C show the results for In vitro studies using primary dendritic cells. Primary bone marrow-derived dendritic cell cultures were obtained from BALB/c mice by in vitro maturation of precursors using recombinant GM-CSF (5×10^4 U/ml). Mature dendritic cells were stimulated with 10 ng/ml of E. coli lypopolysaccharide (LPS) or 50 and 100 ng/ml of BPPcysGlyc4armPEG and BPPcysAda, respectively. Then, cells were double-labeled with antibodies specific for CD11c (dendritic cell marker) in combination with anti-CD40, anti-CD54, anti-CD80, anti-CD86, anti-MHC class 1, or anti-MHC class 11 antibodies. The expression of CD40, CD80, CD54, CD86, anti-MHC class 1, and MHC class 11 in CD11c-gated cells were analyzed by flow cytometry.\nExperimental protocol: primary bone marrow-derived dendritic cell cultures were obtained from BALB/c mice following in vitro maturation of precursors in the presence of recombinant GM-CSF (5×10^4 U/ml), according to established protocols. Mature dendritic cells were stimulated with 10 ng/ml of E. coli lypopolysaccharide (LPS) or 5 ng/ml of BPPcysGlyc4armPEG, after 12, 24 and/or 48 h stimulation cells were analyzed by flow cytometry to assess the expression of surface markers which are relevant for their antigen presentation capacity.\nIn order to identify compounds which may have potential as adjuvants for in vivo applications in the vaccinology field, a first in vitro screening based on the used of primary cultures of bone marrow-derived dendritic cells was established. Dendritic cells were selected since they represent the most efficient antigen presenting cells and they play a key role by primary immune responses. In fact, they are the only cell type able to activate resting T cells initiating primary immune responses in vivo. Thus, dendritic cell cultures were treated with the tested moieties or LPS, which was used as a positive control. At different time intervals, samples were taken, stained with fluorescent-labeled antibodies specific for cellular markers critical for the antigen presenting capacities of dendritic cells, and analyzed by flow cytometry.\nTo test the stimulatory capacity of BPPCysAda on maturation and activation of bone marrow-derived DC, immature DC's were stimulated in vitro with BPPCysAda. Surface markers on CD11c+-gated DC were investigated by FACS analysis after 16 or 40 h pre-treatment."}, "[2]": {"test_system": "spleen cells", "test": "ELISPOT of cytokine producing spleen cells from vaccinated mice", "format": "in vivo", "method": "FIG. 9: FIG. 9 provides the cytokine profile (IFNγ, IL-4 and IL-2) secreted by in vitro re-stimulated spleen cells from mice vaccinated with either BPPcysGlyc4armPEG or BPPcysMPEG (A), or BPPcysAda (B) and the model antigen β-gal (30 μg) alone. Results are expressed as spot forming units with subtracted background in the immunized groups with respect to the non-immunized control mice. Differences were statistically significant at p<0.05 (*) with respect to mice receiving antigen alone.\nExperimental protocol: Spleens were removed and pooled for analysis of cellular immune responses. Cells were grown in RPMI 1640 supplemented with 10% fetal calf serum, 100 U/ml of penicillin, 50 μg/ml of streptomycin, 5×10^−5 M 2-mercaptoethanol and 1 mM L-glutamine (GIBCO BRL, Karlsruhe, Germany) and maintained at 37° C. in a humidified 5% CO2 atmosphere. […] Coat ELISPOT plate with 100 μl/well of purified capture antibody at 10 μg/ml in coating buffer, incubate at 4° C. overnight. After 6× washing steps, the plates were blocked with 200 μl/well of complete RPMI-1640 at room temperature for 1 hour. The activated cells were seeded at 100 μl per well and incubate at 37° C., in a 5% CO2 humidified incubator for 24 hours or 48 hours. After 5× washing steps with washing buffer and 1× step with distilled water, 100 μl/well of the biotinylated detection antibody with a concentration of 1 μg/ml in Assay Diluent was added and incubated at room temperature for 2 hrs. After further washing steps 100 μl/well of the AV-HRP at 1/1000 dilution in Assay Diluent was added and incubated at room temperature for 30 minutes. After further washing steps 100 μl/well of AEC Substrate Solution was added and developed at room temperature for 20-60 minutes until visible spots appeared. After washing steps with (3×) with 200 μl/well distilled water, the plates were air-dried and analyzed by counting the spots by an ELISPOT reader. Each concentration was tested in triplicates."}, "[3]": {"test_system": "spleen cells", "test": "In vitro T cell-mediated proliferative response of spleen cells restimulated with the adjuvant ([3H]thymidine)", "format": "cell-based, Balb/c mice", "conditions": "negative control 4armPEG or Ada", "method": "FIG. 2: FIG. 2 illustrates the cellular responses of restimulated spleen cells using different concentrations of BPPcysGlyc4armPEG or BPPcysAda as adjuvant. […] Results are expressed as counts per minute (A) and (C) and stimulation indexes (cpm samples/cpm in control non stimulated cells) (B).\nExperimental protocol: Spleens were removed and pooled for analysis of cellular immune responses. Cells were grown in RPMI 1640 supplemented with 10% fetal calf serum, 100 U/ml of penicillin, 50 μg/ml of streptomycin, 5×10^−5 M 2-mercaptoethanol and 1 mM L-glutamine (GIBCO BRL, Karlsruhe, Germany) and maintained at 37° C. in a humidified 5% CO2 atmosphere. Lymph node and spleen cell suspensions were adjusted to 5×10^6 cells/ml in complete medium, cells were seeded with 100 μl per well in a flat-bottomed 96-well microtiter plate (Nunc) and plates were incubated for 4 days in the presence of different concentrations of soluble β-gal. Each concentration was tested in quadruplicates. […] Cells were then harvested on paper filters (Filtermat A; Wallac, Freiburg, Germany) by using a cell harvester (Inotech, Wohlen, Switzerland), and the amount of incorporated [^3H]thymidine into the DNA of proliferating cells was determined by a […] (Wallac 1450, Micro-Trilux). The results are expressed as the arithmetic mean of [^3H]thymidine uptake in cpm. […]"}, "[4]": {"test_system": "β-gal-specific IgA", "test": "β-gal-specific secretory IgA in lung and vaginal lavages of i.n. immunized mice", "format": "in vivo, BALB/c mice", "conditions": "i.n. immunization", "method": "Differences were statistically significant at p<0.05 (*) with respect to mice receiving antigen alone. One representative out of four independent experiments is shown. SEM is indicated by vertical lines.\nAt day 38, mice were sacrificed and the final sampling was performed. Vaginal and lung ravages were obtained by flushing the organs with 1 ml of PBS supplemented with 50 mM EDTA, 0.1% BSA, and 10 mM PMSF. Lavages were then centrifuged to remove debris (10 min at 3000×g), and supernatant fluids were stored at −20° C. To determine the concentration of total IgA present in the lung and vaginal ravages, serial dilutions of the corresponding samples were incubated in microtiter plates that were previously coated with goat anti-mouse IgA (Sigma Chemie), as capture antibodies (100 μl/well). Serial dilutions of purified mouse IgA (Sigma Chemie) were used to generate a standard curve."}},
  "data": [
    {"smiles": "CCCCCCCCCCCCCCCC(=O)OCC(CSC[C@H](N)C(=O)N[C@H]1[C@@H](O)[C@H](n2cnc3c(N)ncnc32)O[C@@H]1CO)OC(=O)CCCCCCCCCCCCCCC", "note": "(single isomer, unassigned) [BPPcysAda, S-[2,3-bis(palmitoyloxy)-(2S or 2R)-propyl]-L-cysteinylcarboxy-3′Amino-3′-deoxyadenosine]", "values": [
      {"measurement": "expression of MHC class I and II molecules", "setting": "[1]", "result": "increased expression"},
      {"measurement": "expression of the adhesion molecule ICAM-1 (CD54)", "setting": "[1]", "result": "enhanced expression"},
      {"measurement": "expression of the co-stimulatory molecule CD86", "setting": "[1]", "result": "up-regulated"},
      {"measurement": "splenic IL-2 producing cells", "setting": "[2]; i.n. and s.c. route", "result": "enhanced expression"},
      {"measurement": "splenic IL-4 producing cells", "setting": "[2]; i.n. and s.c. route", "result": "enhanced expression"},
      {"measurement": "number of splenic IFNγ producing cells", "setting": "[2]; restimulation with MHC class I-restricted β-Galactosidase peptide", "result": "increment"},
      {"measurement": "proliferative response of restimulated spleen cells (stimulation index)", "setting": "[3]", "result": "efficient proliferative response"},
      {"measurement": "β-gal-specific IgA in vaginal lavages", "setting": "[4]; day 38", "result": "significantly higher levels"},
      {"measurement": "β-gal-specific IgA in lung lavages (BAL)", "setting": "[4]; day 38, vs antigen alone", "result": "significantly higher levels"}
    ]}
  ]
}
